Data published in PMC12420824, “Discovery of a selective alpha-kinase 1 inhibitor for the rare genetic disease ROSAH syndrome” (Nature Communications, 2025).

Experiments:
Details in all cases: read-out: % Enzyme Activity (relative to DMSO control), 10 uM
TGFBR2 = TGFBR2 (Homo sapiens, UniProt P37173); assay: HotSpot kinase assay
Description: (§1) Additionally, a 10-dose dilution series of staurosporine and other enzyme-appropriate compounds were included as positive control inhibitors.

JNK2 = JNK2 (Homo sapiens, UniProt P45984); assay: HotSpot kinase assay
Description: as §1

MEKK1 = MEKK1 (Homo sapiens, UniProt Q13233); assay: HotSpot kinase assay
PDK3/PDHK3 = PDK3/PDHK3 (Homo sapiens, UniProt Q15120); assay: HotSpot kinase assay
Description: as §1

LIMK2 = LIMK2 (Homo sapiens, UniProt P53671); assay: HotSpot kinase assay
Description: as §1

LIMK1 = LIMK1 (Homo sapiens, UniProt P53667); assay: HotSpot kinase assay
RSK2 = RSK2 (Homo sapiens, UniProt P51812); assay: HotSpot kinase assay
Description: as §1

BRK = BRK (Homo sapiens, UniProt Q13882); assay: HotSpot kinase assay
Chain of BRK (Q13882 whole entry): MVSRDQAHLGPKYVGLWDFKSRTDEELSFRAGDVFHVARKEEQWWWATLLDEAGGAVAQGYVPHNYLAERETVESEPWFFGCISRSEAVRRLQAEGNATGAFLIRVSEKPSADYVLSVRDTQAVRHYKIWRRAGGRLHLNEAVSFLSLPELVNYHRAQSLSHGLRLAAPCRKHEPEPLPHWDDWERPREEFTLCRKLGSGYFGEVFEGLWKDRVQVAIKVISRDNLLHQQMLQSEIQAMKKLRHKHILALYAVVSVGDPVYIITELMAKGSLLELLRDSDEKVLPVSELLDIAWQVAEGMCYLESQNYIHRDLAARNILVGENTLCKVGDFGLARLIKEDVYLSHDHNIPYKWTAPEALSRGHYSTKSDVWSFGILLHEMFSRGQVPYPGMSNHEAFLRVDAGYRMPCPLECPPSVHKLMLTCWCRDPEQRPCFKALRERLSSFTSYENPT
Description: as §1

MYLK4 = MYLK4 (Homo sapiens, UniProt Q86YV6); assay: HotSpot kinase assay
Description: as §1

STK22D/TSSK1 = STK22D/TSSK1 (Homo sapiens, UniProt Q9BXA7); assay: biochemical
Chain of STK22D/TSSK1 (Q9BXA7 whole entry): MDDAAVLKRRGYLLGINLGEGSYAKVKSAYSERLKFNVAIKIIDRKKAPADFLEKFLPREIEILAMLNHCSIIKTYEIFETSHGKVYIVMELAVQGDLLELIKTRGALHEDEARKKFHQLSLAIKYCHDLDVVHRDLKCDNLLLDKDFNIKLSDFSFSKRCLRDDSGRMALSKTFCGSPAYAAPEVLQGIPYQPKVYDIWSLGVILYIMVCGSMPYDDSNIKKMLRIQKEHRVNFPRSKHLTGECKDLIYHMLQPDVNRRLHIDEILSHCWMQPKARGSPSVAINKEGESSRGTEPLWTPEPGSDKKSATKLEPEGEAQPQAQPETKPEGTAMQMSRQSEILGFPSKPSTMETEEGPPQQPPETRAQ
Description: as §1

TAK1 = TAK1 (Homo sapiens, UniProt O43318); assay: HotSpot kinase assay
Description: as §1

CAMK1d = CAMK1d (Homo sapiens, UniProt Q8IU85); assay: HotSpot kinase assay
Description: as §1

DYRK4 = DYRK4 (Homo sapiens, UniProt Q9NR20); assay: HotSpot kinase assay
CHK2 = CHK2 (Homo sapiens, UniProt O96017); assay: HotSpot kinase assay
MKK7 = MKK7 (Homo sapiens, UniProt O14733); assay: HotSpot kinase assay
ERK1 = ERK1 (Homo sapiens, UniProt P27361); assay: HotSpot kinase assay
Description: as §1

ALK4/ACVR1B = ALK4/ACVR1B (Homo sapiens, UniProt P36896); assay: HotSpot kinase assay
Description: as §1

DAPK1 = DAPK1 (Homo sapiens, UniProt P53355); assay: HotSpot kinase assay
Description: as §1

P38b/MAPK11 = P38b/MAPK11 (Homo sapiens, UniProt Q15759); assay: HotSpot kinase assay
Chain of P38b/MAPK11 (Q15759 whole entry): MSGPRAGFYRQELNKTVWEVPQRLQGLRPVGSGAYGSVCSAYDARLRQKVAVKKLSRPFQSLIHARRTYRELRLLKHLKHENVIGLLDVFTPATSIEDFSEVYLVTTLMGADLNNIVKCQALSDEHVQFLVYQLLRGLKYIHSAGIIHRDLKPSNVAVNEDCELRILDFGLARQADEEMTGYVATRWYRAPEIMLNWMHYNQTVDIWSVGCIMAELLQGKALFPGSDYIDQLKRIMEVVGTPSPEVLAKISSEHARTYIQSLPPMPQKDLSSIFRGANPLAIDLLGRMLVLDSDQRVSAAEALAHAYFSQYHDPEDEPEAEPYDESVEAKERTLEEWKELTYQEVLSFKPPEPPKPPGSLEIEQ

NEK2 = NEK2 (Homo sapiens, UniProt P51955); assay: HotSpot kinase assay
Chain of NEK2 (P51955 whole entry): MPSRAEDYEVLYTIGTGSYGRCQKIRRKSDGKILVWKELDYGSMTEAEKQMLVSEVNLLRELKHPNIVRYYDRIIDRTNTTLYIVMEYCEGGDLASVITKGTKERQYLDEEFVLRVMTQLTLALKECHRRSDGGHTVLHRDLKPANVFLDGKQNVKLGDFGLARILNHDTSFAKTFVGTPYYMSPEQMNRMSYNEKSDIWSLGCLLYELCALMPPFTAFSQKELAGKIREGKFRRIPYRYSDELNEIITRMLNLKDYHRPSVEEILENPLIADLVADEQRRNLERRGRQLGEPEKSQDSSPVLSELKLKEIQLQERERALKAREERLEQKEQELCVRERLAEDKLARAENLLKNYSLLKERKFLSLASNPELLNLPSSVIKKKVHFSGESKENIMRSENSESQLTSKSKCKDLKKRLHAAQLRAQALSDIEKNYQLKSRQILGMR
Description: as §1

MEK2 = MEK2 (Homo sapiens, UniProt P36507); assay: HotSpot kinase assay
Chain of MEK2 (P36507 whole entry): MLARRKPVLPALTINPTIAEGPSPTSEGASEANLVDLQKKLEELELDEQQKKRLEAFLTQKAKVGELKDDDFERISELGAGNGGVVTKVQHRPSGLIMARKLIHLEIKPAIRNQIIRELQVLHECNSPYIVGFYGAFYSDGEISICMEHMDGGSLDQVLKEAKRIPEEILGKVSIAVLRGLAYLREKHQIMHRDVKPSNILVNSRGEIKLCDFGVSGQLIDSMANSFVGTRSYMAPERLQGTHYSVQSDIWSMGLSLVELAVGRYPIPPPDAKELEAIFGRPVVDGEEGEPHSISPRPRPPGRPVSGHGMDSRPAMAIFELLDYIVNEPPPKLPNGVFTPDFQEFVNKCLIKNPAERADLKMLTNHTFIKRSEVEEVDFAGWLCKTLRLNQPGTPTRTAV

IKKe/IKBKE = IKKe/IKBKE (Homo sapiens, UniProt Q14164); assay: HotSpot kinase assay
Description: as §1

AMPK(A2/B2/G3) = AMPK(A2/B2/G3) (Homo sapiens, UniProt P54646); assay: HotSpot kinase assay
Description: as §1

EIF2AK2 = EIF2AK2 (Homo sapiens, UniProt P19525); assay: HotSpot kinase assay
Description: as §1

PBK/TOPK = PBK/TOPK (Homo sapiens, UniProt Q96KB5); assay: HotSpot kinase assay
Description: as §1

AXL = AXL (Homo sapiens, UniProt P30530); assay: HotSpot kinase assay
Chain of AXL (P30530 26-894): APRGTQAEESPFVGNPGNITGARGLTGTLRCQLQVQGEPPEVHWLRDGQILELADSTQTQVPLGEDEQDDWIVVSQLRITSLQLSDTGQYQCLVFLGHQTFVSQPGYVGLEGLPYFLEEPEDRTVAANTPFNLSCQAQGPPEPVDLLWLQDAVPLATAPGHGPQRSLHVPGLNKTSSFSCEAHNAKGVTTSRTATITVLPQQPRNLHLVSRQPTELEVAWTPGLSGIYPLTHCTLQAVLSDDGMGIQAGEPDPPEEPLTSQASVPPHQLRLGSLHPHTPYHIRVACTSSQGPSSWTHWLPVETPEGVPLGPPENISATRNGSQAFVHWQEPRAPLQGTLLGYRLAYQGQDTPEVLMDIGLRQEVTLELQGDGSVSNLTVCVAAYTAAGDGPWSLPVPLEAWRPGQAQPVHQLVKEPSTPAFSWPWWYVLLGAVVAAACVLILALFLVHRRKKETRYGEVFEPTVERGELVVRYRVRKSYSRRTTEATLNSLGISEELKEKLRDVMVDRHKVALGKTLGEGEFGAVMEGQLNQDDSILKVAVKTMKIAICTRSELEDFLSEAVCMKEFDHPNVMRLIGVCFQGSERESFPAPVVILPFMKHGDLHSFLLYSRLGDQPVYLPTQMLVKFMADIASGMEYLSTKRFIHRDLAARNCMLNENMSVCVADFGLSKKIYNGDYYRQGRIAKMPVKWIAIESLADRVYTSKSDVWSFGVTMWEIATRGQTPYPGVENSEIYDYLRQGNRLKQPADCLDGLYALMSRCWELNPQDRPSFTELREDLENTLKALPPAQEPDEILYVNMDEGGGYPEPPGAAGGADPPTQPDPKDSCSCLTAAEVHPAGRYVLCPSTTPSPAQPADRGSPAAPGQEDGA
Description: as §1

FGR = FGR (Homo sapiens, UniProt P09769); assay: HotSpot kinase assay
Description: as §1

ULK1 = ULK1 (Homo sapiens, UniProt O75385); assay: HotSpot kinase assay
Description: as §1

NEK7 = NEK7 (Homo sapiens, UniProt Q8TDX7); assay: HotSpot kinase assay
Chain of NEK7 (Q8TDX7 whole entry): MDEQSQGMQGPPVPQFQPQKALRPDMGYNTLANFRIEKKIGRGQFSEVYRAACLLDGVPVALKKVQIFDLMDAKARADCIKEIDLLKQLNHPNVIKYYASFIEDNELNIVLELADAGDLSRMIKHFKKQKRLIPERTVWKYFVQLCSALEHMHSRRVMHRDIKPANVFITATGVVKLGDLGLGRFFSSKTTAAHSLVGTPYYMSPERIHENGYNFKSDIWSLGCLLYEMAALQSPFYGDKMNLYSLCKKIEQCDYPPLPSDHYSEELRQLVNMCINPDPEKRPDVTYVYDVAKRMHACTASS
Description: as §1

SBK1 = SBK1 (Homo sapiens, UniProt Q52WX2); assay: HotSpot kinase assay
Chain of SBK1 (Q52WX2 whole entry): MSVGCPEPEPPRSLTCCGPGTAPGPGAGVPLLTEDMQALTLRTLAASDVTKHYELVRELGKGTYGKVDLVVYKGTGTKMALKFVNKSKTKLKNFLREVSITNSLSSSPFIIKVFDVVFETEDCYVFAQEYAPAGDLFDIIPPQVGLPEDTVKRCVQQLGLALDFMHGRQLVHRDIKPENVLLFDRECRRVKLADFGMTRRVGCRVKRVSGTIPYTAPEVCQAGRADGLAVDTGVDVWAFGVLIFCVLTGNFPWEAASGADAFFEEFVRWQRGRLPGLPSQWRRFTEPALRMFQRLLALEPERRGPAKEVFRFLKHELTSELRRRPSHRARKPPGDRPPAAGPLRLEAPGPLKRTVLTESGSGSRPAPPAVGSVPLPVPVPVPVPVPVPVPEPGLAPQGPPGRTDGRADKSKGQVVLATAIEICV
Description: as §1

BLK = BLK (Homo sapiens, UniProt P51451); assay: HotSpot kinase assay
MKK6 = MKK6 (Homo sapiens, UniProt P52564); assay: HotSpot kinase assay
Chain of MKK6 (P52564 whole entry): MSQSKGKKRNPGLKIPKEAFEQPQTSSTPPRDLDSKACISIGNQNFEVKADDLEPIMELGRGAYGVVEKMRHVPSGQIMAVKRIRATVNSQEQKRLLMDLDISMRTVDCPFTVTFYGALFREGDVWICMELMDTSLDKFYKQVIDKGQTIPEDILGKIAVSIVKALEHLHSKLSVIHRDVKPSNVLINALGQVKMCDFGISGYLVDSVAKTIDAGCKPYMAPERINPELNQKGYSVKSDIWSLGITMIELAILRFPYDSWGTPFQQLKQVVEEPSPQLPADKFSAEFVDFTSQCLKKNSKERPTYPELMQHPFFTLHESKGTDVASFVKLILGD
Description: as §1

PDK4/PDHK4 = PDK4/PDHK4 (Homo sapiens, UniProt Q16654); assay: HotSpot kinase assay
Description: as §1

EPHA6 = EPHA6 (Homo sapiens, UniProt Q9UF33); assay: HotSpot kinase assay
Chain of EPHA6 (Q9UF33 23-1036): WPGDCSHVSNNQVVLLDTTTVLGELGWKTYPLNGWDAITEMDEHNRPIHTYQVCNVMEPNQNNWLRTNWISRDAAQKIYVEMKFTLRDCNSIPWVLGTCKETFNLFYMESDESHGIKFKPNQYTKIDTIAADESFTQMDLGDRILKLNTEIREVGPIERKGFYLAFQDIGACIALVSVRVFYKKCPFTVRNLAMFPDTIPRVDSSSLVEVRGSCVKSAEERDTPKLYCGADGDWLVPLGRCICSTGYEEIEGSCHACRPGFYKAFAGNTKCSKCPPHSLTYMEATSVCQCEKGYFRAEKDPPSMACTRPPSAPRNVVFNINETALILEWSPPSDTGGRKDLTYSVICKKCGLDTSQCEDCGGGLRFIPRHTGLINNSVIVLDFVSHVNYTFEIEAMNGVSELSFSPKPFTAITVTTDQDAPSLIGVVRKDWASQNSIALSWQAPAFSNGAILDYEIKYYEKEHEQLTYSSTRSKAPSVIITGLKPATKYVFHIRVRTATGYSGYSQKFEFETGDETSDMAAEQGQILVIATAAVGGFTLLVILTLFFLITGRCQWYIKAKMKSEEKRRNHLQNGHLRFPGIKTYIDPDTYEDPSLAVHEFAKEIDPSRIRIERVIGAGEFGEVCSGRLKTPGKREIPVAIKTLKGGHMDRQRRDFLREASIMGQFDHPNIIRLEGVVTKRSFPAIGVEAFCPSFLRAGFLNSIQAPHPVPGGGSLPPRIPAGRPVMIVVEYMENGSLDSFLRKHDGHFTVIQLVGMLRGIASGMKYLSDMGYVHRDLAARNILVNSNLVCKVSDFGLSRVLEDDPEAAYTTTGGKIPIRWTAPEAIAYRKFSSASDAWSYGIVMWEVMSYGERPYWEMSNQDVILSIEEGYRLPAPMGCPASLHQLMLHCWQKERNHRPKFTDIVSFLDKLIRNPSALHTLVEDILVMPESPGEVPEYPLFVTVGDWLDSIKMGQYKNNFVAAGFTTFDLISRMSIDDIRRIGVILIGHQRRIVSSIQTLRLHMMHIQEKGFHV

IRR/INSRR = IRR/INSRR (Homo sapiens, UniProt P14616); assay: HotSpot kinase assay
Description: as §1

ALK5/TGFBR1 = ALK5/TGFBR1 (Homo sapiens, UniProt P36897); assay: HotSpot kinase assay
Description: as §1

ERBB2/HER2 = ERBB2/HER2 (Homo sapiens, UniProt P04626); assay: HotSpot kinase assay
Description: as §1

## C#C[C@@](C)(c1ccc(Cl)cc1)c1csc(NC(=O)c2c(F)cc(N3CCNCC3)cc2F)n1 (stereo in doubt) [DF-003]
TGFBR2
  remaining activity at 10 µM: 91.5%
JNK2
  remaining activity at 10 µM: 107%
MEKK1
  remaining activity at 10 µM: 99.9%
PDK3/PDHK3
  remaining activity at 10 µM: 89.9%
LIMK2
  remaining activity at 10 µM: 85.2%
LIMK1
  remaining activity at 10 µM: 98.3%
RSK2
  remaining activity at 10 µM: 104%
BRK
  remaining activity at 10 µM: 81.2%
MYLK4
  remaining activity at 10 µM: 87.1%
STK22D/TSSK1
  remaining activity at 10 µM: 94.2%
TAK1
  remaining activity at 10 µM: 102%
CAMK1d
  remaining activity at 10 µM: 39.1%
DYRK4
  remaining activity at 10 µM: 104%
CHK2
  remaining activity at 10 µM: 89.9%
MKK7
  remaining activity at 10 µM: 103%
ERK1
  remaining activity at 10 µM: 115%
ALK4/ACVR1B
  remaining activity at 10 µM: 83.8%
DAPK1
  remaining activity at 10 µM: 62.8%
P38b/MAPK11
  remaining activity at 10 µM: 95.4%
NEK2
  remaining activity at 10 µM: 68.6%
MEK2
  remaining activity at 10 µM: 89.8%
IKKe/IKBKE
  remaining activity at 10 µM: 104%
AMPK(A2/B2/G3)
  remaining activity at 10 µM: 85%
EIF2AK2
  remaining activity at 10 µM: 105%
PBK/TOPK
  remaining activity at 10 µM: 90.5%
AXL
  remaining activity at 10 µM: 47.9%
FGR
  remaining activity at 10 µM: 97.8%
ULK1
  remaining activity at 10 µM: 56.8%
NEK7
  remaining activity at 10 µM: 118%
SBK1
  remaining activity at 10 µM: 94.3%
BLK
  remaining activity at 10 µM: 74.5%
MKK6
  remaining activity at 10 µM: 105%
PDK4/PDHK4
  remaining activity at 10 µM: 103%
EPHA6
  remaining activity at 10 µM: 79.3%
IRR/INSRR
  remaining activity at 10 µM: 66.3%
ALK5/TGFBR1
  remaining activity at 10 µM: 103%
ERBB2/HER2
  remaining activity at 10 µM: 95.9%
